# Experimental data taken from PubChem BioAssay AID1918939 (Molecular Pharmacology Branch, DTP, NCI, 2023).
# Test system: 653999-131-R-J2-PDC complex spheroid viability
# Experiment: Anticancer human tumor 653999-131-R-J2-PDC patient-derived lung adenocarcinoma cell line growth inhibition
# Conditions: for IC50: curve of first compound; for viability, T/C: stronger effect = lower value
# Excerpt: Multicellular complex tumor spheroid response to LSD1 Inhibitor Iadademstat in combination with a variety of drugs and investigational agents in selected tumor cell lines
# The current study was undertaken to assess response to LSD1 inhibitors in combination with standard-of-care drugs and investigational agents in solid tumor complex spheroid models as well as in the K-562 leukemia. Complex spheroids include a stromal component modeled by human endothelial cells (HUVEC) and fibroblasts modeled by human mesenchymal stem cells (MSCs). The concentration ranges selected for each drug and investigational agent were based upon clinically achievable concentrations if the clinical Cmax of the agent was known.
# Compounds. The drugs and investigational agents used in this study are listed on Table 1. All of the agents used, including staurosporine (NSC755774) and gemcitabine (NSC613327), were obtained from the Developmental Therapeutics Program, NCI. FDA-approved anticancer drugs are available from the NCI at http://dtp.nci.nih.gov/branches/dscb/oncology_drugset_explanation.html. Drugs and investigational agents were >95% pure by proton nuclear magnetic resonance (NMR) and liquid chromatography/mass spectrometry (LC/MS). Stock solutions were prepared at 400x in DMSO, stored at -70 degrees C, and diluted in fresh medium prior to their use. The final concentration of DMSO in cell culture wells never exceeded 0.25% (v/v). The FDA-approved anticancer drug set is available from the Developmental Therapeutics Program at https://dtp.cancer.gov/organization/dscb/obtaining/available_plates.htm. All drugs and investigational agents were tested over a range starting from a high concentration at or near the clinical Cmax and decreasing in half-log increments. If the clinical Cmax for an agent had not been determined, the highest concentration tested was 10 microM.
# Cell Lines. The patient-derived cancer cell (PDC) lines: 292921-168-R-J2-PDC, K24384-001-R-PDC, and 521955-158-R2-J5-PDC pancreatic carcinomas, 556581-035-R-J1 ovarian carcinoma, 324938-238-R-J1-PDC, 855422-203-R-J1-PDC and 883617-216-R-J1-PDC urothelial bladder carcinomas, 743489-274-T-PDC renal cell carcinoma, 138582-R-J1 Merkel cell tumor, K60290-347-R-J1 and K57222-313-R-J1-PDC glioblastomas, 653999-131-R-J2-PDC, LG0703-F948-PDC, and 349418-098-R-PDC non-small cell lung carcinomas, 885512-296-R-J2-PDC, 171881-019-R-J1-PDC breast carcinomas and 186277-243-T-J2-PDC and 233499-124-R-J2-PDC colon carcinomas were obtained from the NCI Patient-Derived Models Repository (PDMR, https://pdmr.cancer.gov). The established cell lines NCI/ADR-RES (RRID:CVCL_14520 and OVCAR-5 (RRID:CVCL_1628) ovarian carcinomas, 786-O (RRID:CVCL_1051) and A498 (RRID:CVCL_A498) renal cell carcinoma, NCI-H211 (ATCC, cat. CRL-5824; RRID:CVCL_1529), NCI-H196 (ATCC, cat. CRL-5823, RRID:CVCL_1509), SW 1271 (ATCC, cat. CRL-2177, RRID:CVCL_1716) and NCI-H1876 (ATCC, cat. CRL-5902, RRID:CVCL_1503) small cell lung carcinomas, MDA-MB-231 (RRID:CVCL_0062) and MDA-MB-468 (RRID:CVCL_0419)breast carcinomas (10-12). Pooled donor human umbilical vein endothelial cells (HUVEC, Lonza, cat. CC-2519) and human mesenchymal stem cells (hMSC, Lonza, cat. PT-2501) were purchased from Lonza (Walkersville, MD).
# Cell Culture. All cells were maintained in an incubator at 37 degrees C and 5% CO2 with 95% humidity. The PDC lines were cultured according to standard operating procedures established by the NCI PDMR (https://pdmr.cancer.gov). Briefly all PDCs were thawed and cultured in Matrigel-coated flasks prepared with a working solution of 1X Ham's F-12 nutrient mix, without supplementation (Invitrogen, Waltham, MA, cat. 11765054), 100 U/mL penicillin-streptomycin (Invitrogen, cat. 15140122), and 2.5% Matrigel (Corning Inc., Corning, NY, cat. 354248) for the first three passages. […]
# 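Further: spheroids exposed to agents for seven days before readout.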
smiles,measurement,setting,value
Nc1ccn(C2OC(CO)C(O)C2(F)F)c(=O)n1 (stereo not given) + NC1CC1c1ccc(-c2cccc(O)c2)cc1,IC50,second compound 0.1 µM,133 nM
same,IC50,second compound 0.316 µM,37.9 nM
same,IC50,second compound 1 µM,24.9 nM
same,IC50,second compound 3.16 µM,68.3 nM
same,IC50,second compound 10 µM,> 300 nM
same,"viability, T/C","second compound 0.1 µM, first compound 0.000949 µM",105%
same,"viability, T/C","second compound 0.1 µM, first compound 0.003 µM",92.4%
same,"viability, T/C","second compound 0.1 µM, first compound 0.00949 µM",67.2%
same,"viability, T/C","second compound 0.1 µM, first compound 0.03 µM",61.3%
same,"viability, T/C","second compound 0.1 µM, first compound 0.0949 µM",43.6%
same,"viability, T/C","second compound 0.1 µM, first compound 0.3 µM",52.2%
same,"viability, T/C","second compound 0.316 µM, first compound 0.000949 µM",82.1%
same,"viability, T/C","second compound 0.316 µM, first compound 0.003 µM",77.2%
same,"viability, T/C","second compound 0.316 µM, first compound 0.00949 µM",75.6%
same,"viability, T/C","second compound 0.316 µM, first compound 0.03 µM",51.2%
same,"viability, T/C","second compound 0.316 µM, first compound 0.0949 µM",43.5%
same,"viability, T/C","second compound 0.316 µM, first compound 0.3 µM",47%
same,"viability, T/C","second compound 1 µM, first compound 0.000949 µM",75.1%
same,"viability, T/C","second compound 1 µM, first compound 0.003 µM",80.9%
same,"viability, T/C","second compound 1 µM, first compound 0.00949 µM",64.7%
same,"viability, T/C","second compound 1 µM, first compound 0.03 µM",48.6%
same,"viability, T/C","second compound 1 µM, first compound 0.0949 µM",45.2%
same,"viability, T/C","second compound 1 µM, first compound 0.3 µM",44.9%
same,"viability, T/C","second compound 3.16 µM, first compound 0.000949 µM",83.4%
same,"viability, T/C","second compound 3.16 µM, first compound 0.003 µM",74.1%
same,"viability, T/C","second compound 3.16 µM, first compound 0.00949 µM",63.4%
same,"viability, T/C","second compound 3.16 µM, first compound 0.03 µM",57.4%
same,"viability, T/C","second compound 3.16 µM, first compound 0.0949 µM",47.3%
same,"viability, T/C","second compound 3.16 µM, first compound 0.3 µM",39.7%
same,"viability, T/C","second compound 10 µM, first compound 0.000949 µM",76%
same,"viability, T/C","second compound 10 µM, first compound 0.003 µM",70.8%
same,"viability, T/C","second compound 10 µM, first compound 0.00949 µM",68.9%
same,"viability, T/C","second compound 10 µM, first compound 0.03 µM",53.1%
same,"viability, T/C","second compound 10 µM, first compound 0.0949 µM",55.4%
same,"viability, T/C","second compound 10 µM, first compound 0.3 µM",51.5%
O=C(c1cc(Cc2n[nH]c(=O)c3ccccc23)ccc1F)N1CCN(C(=O)C2CC2)CC1 + NC1CC1c1ccc(-c2cccc(O)c2)cc1,IC50,second compound 0.1 µM,> 10000 nM
same,IC50,second compound 0.316 µM,> 10000 nM
same,IC50,second compound 1 µM,> 10000 nM
same,IC50,second compound 3.16 µM,> 10000 nM
same,IC50,second compound 10 µM,> 10000 nM
same,"viability, T/C","second compound 0.1 µM, first compound 0.0316 µM",102%
same,"viability, T/C","second compound 0.1 µM, first compound 0.1 µM",106%
same,"viability, T/C","second compound 0.1 µM, first compound 0.316 µM",95.1%
same,"viability, T/C","second compound 0.1 µM, first compound 1 µM",89.1%
same,"viability, T/C","second compound 0.1 µM, first compound 3.16 µM",76.5%
same,"viability, T/C","second compound 0.1 µM, first compound 10 µM",66.1%
same,"viability, T/C","second compound 0.316 µM, first compound 0.0316 µM",93.8%
same,"viability, T/C","second compound 0.316 µM, first compound 0.1 µM",90.7%
same,"viability, T/C","second compound 0.316 µM, first compound 0.316 µM",82.6%
same,"viability, T/C","second compound 0.316 µM, first compound 1 µM",72%
same,"viability, T/C","second compound 0.316 µM, first compound 3.16 µM",59.9%
same,"viability, T/C","second compound 0.316 µM, first compound 10 µM",65.4%
same,"viability, T/C","second compound 1 µM, first compound 0.0316 µM",86.1%
same,"viability, T/C","second compound 1 µM, first compound 0.1 µM",80.4%
same,"viability, T/C","second compound 1 µM, first compound 0.316 µM",90.8%
same,"viability, T/C","second compound 1 µM, first compound 1 µM",64.3%
same,"viability, T/C","second compound 1 µM, first compound 3.16 µM",75.3%
same,"viability, T/C","second compound 1 µM, first compound 10 µM",63.5%
same,"viability, T/C","second compound 3.16 µM, first compound 0.0316 µM",78.5%
same,"viability, T/C","second compound 3.16 µM, first compound 0.1 µM",87.2%
same,"viability, T/C","second compound 3.16 µM, first compound 0.316 µM",87%
same,"viability, T/C","second compound 3.16 µM, first compound 1 µM",82.5%
same,"viability, T/C","second compound 3.16 µM, first compound 3.16 µM",71.4%
same,"viability, T/C","second compound 3.16 µM, first compound 10 µM",64.6%
same,"viability, T/C","second compound 10 µM, first compound 0.0316 µM",92.8%
same,"viability, T/C","second compound 10 µM, first compound 0.1 µM",79.7%
same,"viability, T/C","second compound 10 µM, first compound 0.316 µM",87.9%
same,"viability, T/C","second compound 10 µM, first compound 1 µM",78.3%
same,"viability, T/C","second compound 10 µM, first compound 3.16 µM",71.7%
same,"viability, T/C","second compound 10 µM, first compound 10 µM",58.5%
